Assay results published in US6191115A, “C-terminus modified heptapeptide LHRH analogs” (Abbott Laboratories, priority 1999, dated 2001).
Non-standard residues stand in square brackets, D forms with d. Residues, ends and D or L forms follow the SMILES beside them. *: point of attachment. NHCH2CH2(piperidin-1-yl) = C1CCN(CCN*)CC1; dPhe(4-Cl) = N[C@H](Cc1ccc(Cl)cc1)C(=O)O; NH(2-(2-pyridyl)ethyl) = c1ccc(CCN*)nc1; NH(2-morpholinoethyl) = C(CN1CCOCC1)N*; d2Nal = N[C@H](Cc1ccc2ccccc2c1)C(=O)O; NMeY = CN[C@@H](Cc1ccc(O)cc1)C(=O)O; d3Pal = N[C@H](Cc1cccnc1)C(=O)O; NH(3-picolyl) = c1cncc(CN*)c1; Nicotinoyl = O=C(c1cccnc1)*; X13 = C(CN*)CN1CCOCC1; X5 = C1CN2CCC1C(N*)C2; NH(CH2)4OH = OCCCCN*; X1 = CC1CCCCN1CCCN*; X3 = O=C1CCCN1CCCN*; X7 = CN1CCCC1CCN*; X8 = Cn1cccc1CCN*

Molecular target: T1, LH release from rat pituitary cells (Rattus norvegicus, UniProt P30969)
T1 sequence (P30969 1-327): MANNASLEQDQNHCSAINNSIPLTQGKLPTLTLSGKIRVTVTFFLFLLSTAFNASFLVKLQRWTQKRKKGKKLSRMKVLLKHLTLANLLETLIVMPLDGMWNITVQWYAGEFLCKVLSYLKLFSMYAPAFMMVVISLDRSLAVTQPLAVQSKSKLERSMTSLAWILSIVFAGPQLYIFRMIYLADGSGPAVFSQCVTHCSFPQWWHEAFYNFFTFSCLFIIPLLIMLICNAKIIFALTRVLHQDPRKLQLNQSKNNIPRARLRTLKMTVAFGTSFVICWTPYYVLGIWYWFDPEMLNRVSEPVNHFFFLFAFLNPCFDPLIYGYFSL
Assay: in vitro inhibition of LH release from rat pituitary cells (pA2)
Type: cell-based
Conditions: pA2 = negative logarithm of antagonist concentration required to shift the response curve of the agonist leuprolide to two-fold higher concentration
Procedure: Representative compounds of the present invention were evaluated in vitro for inhibition of LH release from rat pituitary cells (pA2). Methods for the assay procedures arc described by F. Haviv, et al. J. Med. Chem., 32:2340-2344 (1989). Values of pA2 are the negative logarithms of the concentration of the particular antagonist test compound required to shift the response curve produced by the agonist leuprolide to two-fold higher concentration. Typically values of 7.0 or greater are indicative of good LHRH antagonist potency, with values of 8.0 or greater being preferred. Leuprolide LHRH agonist, disclosed and claimed in U.S. Pat. No. 4,005,063, has the structure 5-oxo-Pro^1 -His^2 -Trp^3 -Ser^4 -Tyr^5 -D-Leu^6 -Leu^7 -Arg^8 -Pro^9 -NHEt.

SMILES	LHRH antagonist potency (pA2)
CC(=O)N[C@H](Cc1ccc2ccccc2c1)C(=O)N[C@H](Cc1ccc(Cl)cc1)C(=O)N[C@H](Cc1cccnc1)C(=O)N[C@@H](CO)C(=O)N(C)[C@@H](Cc1ccc(O)cc1)C(=O)N[C@H](CCCCNC(=O)c1cccnc1)C(=O)N[C@@H](CC(C)C)C(=O)NCc1cccnc1 [Example 24, NAcD2Nal-D4ClPhe-D3Pal-Ser-NMeTyr-DLys(Nic)-Leu-NH--CH2 -(3-pyridine)] (Ac-[d2Nal][dPhe(4-Cl)][d3Pal]S[NMeY][dK](Nicotinoyl)L-{NH(3-picolyl)})	8.30
CC(=O)N[C@H](Cc1ccc2ccccc2c1)C(=O)N[C@H](Cc1ccc(Cl)cc1)C(=O)N[C@H](Cc1cccnc1)C(=O)N[C@@H](CO)C(=O)N(C)[C@@H](Cc1ccc(O)cc1)C(=O)N[C@H](CCCCNC(=O)c1cccnc1)C(=O)N[C@@H](CC(C)C)C(=O)NC1CN2CCC1CC2 (stereo partly drawn) [Example 25, NAcD2Nal-D4ClPhe-D3Pal-Ser-NMeTyr-Dlys(Nic)-Leu-NH--(3-guinuclidine)] (Ac-[d2Nal][dPhe(4-Cl)][d3Pal]S[NMeY][dK](Nicotinoyl)L-X5)	10.02
CC(=O)N[C@H](Cc1ccc2ccccc2c1)C(=O)N[C@H](Cc1ccc(Cl)cc1)C(=O)N[C@H](Cc1cccnc1)C(=O)N[C@@H](CO)C(=O)N(C)[C@@H](Cc1ccc(O)cc1)C(=O)N[C@H](CCCCNC(=O)c1cccnc1)C(=O)N[C@@H](CC(C)C)C(=O)NCCN1CCCCC1 [Example 26, NAcD2Nal-D4ClPhe-D3Pal-Ser-NMeTyr-DLys(Nic)-Leu-NH--CH2 --CH2 -(1-piperidine)] (Ac-[d2Nal][dPhe(4-Cl)][d3Pal]S[NMeY][dK](Nicotinoyl)L-{NHCH2CH2(piperidin-1-yl)})	9.30
CC(=O)N[C@H](Cc1ccc2ccccc2c1)C(=O)N[C@H](Cc1ccc(Cl)cc1)C(=O)N[C@H](Cc1cccnc1)C(=O)N[C@@H](CO)C(=O)N(C)[C@@H](Cc1ccc(O)cc1)C(=O)N[C@H](CCCCNC(=O)c1cccnc1)C(=O)N[C@@H](CC(C)C)C(=O)NCCN1CCOCC1 [Example 27, NAcD2Nal-D4ClPhe-D3Pal-Ser-NMeTyr-DLys(Nic)-Leu-NH--CH2 --CH2 -(1-norpholine)] (Ac-[d2Nal][dPhe(4-Cl)][d3Pal]S[NMeY][dK](Nicotinoyl)L-{NH(2-morpholinoethyl)})	8.30
CC(=O)N[C@H](Cc1ccc2ccccc2c1)C(=O)N[C@H](Cc1ccc(Cl)cc1)C(=O)N[C@H](Cc1cccnc1)C(=O)N[C@@H](CO)C(=O)N(C)[C@@H](Cc1ccc(O)cc1)C(=O)N[C@H](CCCCNC(=O)c1cccnc1)C(=O)N[C@@H](CC(C)C)C(=O)NCCc1ccccn1 [Example 28, NAcD2Nal-D4ClPhe-D3Pal-Ser-NMeTyr-DLys(Nic)-Leu-NH--CH2 --CH2 -(2-pyridine)] (Ac-[d2Nal][dPhe(4-Cl)][d3Pal]S[NMeY][dK](Nicotinoyl)L-{NH(2-(2-pyridyl)ethyl)})	8.10
CC(=O)N[C@H](Cc1ccc2ccccc2c1)C(=O)N[C@H](Cc1ccc(Cl)cc1)C(=O)N[C@H](Cc1cccnc1)C(=O)N[C@@H](CO)C(=O)N(C)[C@@H](Cc1ccc(O)cc1)C(=O)N[C@H](CCCCNC(=O)c1cccnc1)C(=O)N[C@@H](CC(C)C)C(=O)NCCc1cccn1C [Example 29, NAcD2Nal-D4ClPhe-D3Pal-Ser-NMeTyr-DLys(Nic)-Leu-NH--CH2 --CH2 -[2-(1-methyl)pyrrole]] (Ac-[d2Nal][dPhe(4-Cl)][d3Pal]S[NMeY][dK](Nicotinoyl)L-X8)	8.30
CC(=O)N[C@H](Cc1ccc2ccccc2c1)C(=O)N[C@H](Cc1ccc(Cl)cc1)C(=O)N[C@H](Cc1cccnc1)C(=O)N[C@@H](CO)C(=O)N(C)[C@@H](Cc1ccc(O)cc1)C(=O)N[C@H](CCCCNC(=O)c1cccnc1)C(=O)N[C@@H](CC(C)C)C(=O)NCCC1CCCN1C (stereo partly drawn) [Example 30, NAcD2Nal-D4ClPhe-D3Pal-Ser-NMeTyr-DLys(Nic)-Leu-NH--CH2 --CH2 -[2-(1-methyl)pyrrolidine]] (Ac-[d2Nal][dPhe(4-Cl)][d3Pal]S[NMeY][dK](Nicotinoyl)L-X7)	9.80
CC(=O)N[C@H](Cc1ccc2ccccc2c1)C(=O)N[C@H](Cc1ccc(Cl)cc1)C(=O)N[C@H](Cc1cccnc1)C(=O)N[C@@H](CO)C(=O)N(C)[C@@H](Cc1ccc(O)cc1)C(=O)N[C@H](CCCCNC(=O)c1cccnc1)C(=O)N[C@@H](CC(C)C)C(=O)NCCCN1CCOCC1 [Example 31, NAcD2Nal-D4ClPhe-D3Pal-Ser-NMeTyr-DLys(Nic)-Leu-NH--CH2 CH2 CH2 -(1-morpholine)] (Ac-[d2Nal][dPhe(4-Cl)][d3Pal]S[NMeY][dK](Nicotinoyl)L-X13)	9.30
CC(=O)N[C@H](Cc1ccc2ccccc2c1)C(=O)N[C@H](Cc1ccc(Cl)cc1)C(=O)N[C@H](Cc1cccnc1)C(=O)N[C@@H](CO)C(=O)N(C)[C@@H](Cc1ccc(O)cc1)C(=O)N[C@H](CCCCNC(=O)c1cccnc1)C(=O)N[C@@H](CC(C)C)C(=O)NCCCN1CCCCC1C (stereo partly drawn) [Example 32, NAcD2Nal-D4ClPhe-D3Pal-Ser-NMeTyr-DLys(Nic)-Leu-NH--CH2 CH2 CH2 -[1-(2-methyl)piperidine]] (Ac-[d2Nal][dPhe(4-Cl)][d3Pal]S[NMeY][dK](Nicotinoyl)L-X1)	9.07
CC(=O)N[C@H](Cc1ccc2ccccc2c1)C(=O)N[C@H](Cc1ccc(Cl)cc1)C(=O)N[C@H](Cc1cccnc1)C(=O)N[C@@H](CO)C(=O)N(C)[C@@H](Cc1ccc(O)cc1)C(=O)N[C@H](CCCCNC(=O)c1cccnc1)C(=O)N[C@@H](CC(C)C)C(=O)NCCCN1CCCC1=O [Example 33, NAcD2Nal-D4ClPhe-D3Pal-Ser-NMeTyr-DLys(Nic)-Leu-NH--CH2 CH2 CH2 -(1-pyrrolidin-2-one)] (Ac-[d2Nal][dPhe(4-Cl)][d3Pal]S[NMeY][dK](Nicotinoyl)L-X3)	8.30
CC(=O)N[C@H](Cc1ccc2ccccc2c1)C(=O)N[C@H](Cc1ccc(Cl)cc1)C(=O)N[C@H](Cc1cccnc1)C(=O)N[C@@H](CO)C(=O)N(C)[C@@H](Cc1ccc(O)cc1)C(=O)N[C@H](CCCCNC(=O)c1cccnc1)C(=O)N[C@@H](CC(C)C)C(=O)NCCCCO [Example 34, NAcD2Nal-D4ClPhe-D3Pal-Ser-NMeTyr-DLys(Nic)-Leu-NH--CH2 CH2 CH2 CH2 OH] (Ac-[d2Nal][dPhe(4-Cl)][d3Pal]S[NMeY][dK](Nicotinoyl)L-{NH(CH2)4OH})	8.71
